Laboratory results reported in ChEMBL document CHEMBL5244240, “MmpL3 inhibitors as antituberculosis drugs” (Eur J Med Chem, 2020).
Values after ≈ are worked out from the molar mass of the structure shown.

Legend:
[1] = system: Mycobacterium tuberculosis; experiment: Antitubercular activity against non-replicating Mycobacterium tuberculosis H37Rv; type: functional
[2] = system: Mycobacterium tuberculosis; experiment: Antitubercular activity against replicating Mycobacterium tuberculosis H37Rv; type: functional
[3] = system: Mycobacterium tuberculosis; experiment: Antitubercular activity against Mycobacterium tuberculosis infected in mouse assessed as log reduction in bacterial burden in lung at 300 mg/kg; type: functional
[4] = system: Mycobacterium tuberculosis; experiment: Antitubercular activity against Mycobacterium tuberculosis infected in mouse assessed as log reduction in bacterial burden in lung at 100 mg/kg; type: functional
[5] = system: Mycobacterium tuberculosis; experiment: Antitubercular activity against Mycobacterium tuberculosis H37Rv; type: functional
[6] = system: Mycobacterium tuberculosis; experiment: Bactericidal activity against replicating Mycobacterium tuberculosis H37Rv; type: functional
[7] = Clearance in mouse microsomes; type: ADME, Microsome
[8] = system: Mycobacterium tuberculosis; experiment: Antitubercular activity against Mycobacterium tuberculosis H37Rv infected in mouse assessed as log reduction in CFU in lung at 100 mg/kg; type: functional
[9] = system: Mycobacterium tuberculosis; experiment: Antitubercular activity against Mycobacterium tuberculosis H37Rv infected in mouse assessed as log reduction in CFU in lung at 50 mg/kg; type: functional
[10] = system: Mycobacteroides abscessus; experiment: Antitubercular activity against Mycobacterium abscessus CIP104536; type: functional
[11] = system: Mycobacterium tuberculosis; experiment: Antitubercular activity against Mycobacterium tuberculosis H37Rv infected in mouse macrophage; type: functional
[12] = system: Mycobacterium tuberculosis; experiment: Antitubercular activity against non replicating Mycobacterium tuberculosis bacilli by low oxygen recovery assay; type: functional
[13] = system: Mycobacterium tuberculosis; experiment: Antitubercular activity against replicating Mycobacterium tuberculosis bacilli; type: functional
[14] = system: Mycobacterium tuberculosis; experiment: Antitubercular activity against Mycobacterium tuberculosis […]; type: functional
[15] = Tmax in mouse at 25 mg/kg, po; type: ADME, organism-based; details: in vivo
[16] = Clearance in mouse at 25 mg/kg, po; type: ADME, organism-based; details: in vivo
[17] = Elimination half life in mouse at 25 mg/kg, po; type: ADME, organism-based; details: in vivo, read-out: beta t1/2 (converted)
[18] = Volume of distribution at steady state in mouse at 25 mg/kg, po; type: ADME, organism-based; details: in vivo
[19] = system: Mycobacteroides abscessus; experiment: Antimycobacterial activity against Mycobacterium abscessus rough variant; type: functional
[20] = system: Mycobacteroides abscessus; experiment: Antimycobacterial activity against Mycobacterium abscessus smooth variant; type: functional

Molecule `CC(C)=CCC/C(C)=C\CNCCNC1C2CC3CC(C2)CC1C3` (stereo not given) has an MIC [1] of 0.7 µM (≈ 0.231 µg/mL) and an MIC [2] of 0.7 µM (≈ 0.231 µg/mL).
With `CCc1ccc([C@H]2C[C@@H](C(F)(F)F)n3ncc(C(=O)NCc4ccc5c(c4)OCO5)c3N2)cc1` the “log(activity)” value [3] was 2.2, the “log(activity)” value [4] was 1.5 and the MIC [5] was 0.16 µM.
Molecule `FC(F)(F)Oc1ccc(Oc2ccc(CNCCNC3C4CC5CC(C4)CC3C5)cc2)cc1` (stereo not given) has an MIC99 [2] of 2.5 µM (≈ 1.15 µg/mL) and an MBC99 [6] of 5 µM (≈ 2.3 µg/mL).
For `COc1ccc(-c2cc(CN3CCSCC3)c(C)n2-c2ccc(F)cc2)cc1`, the MIC [5] was 0.2 µM and the CLH [7] was 18.76 mL/min/g.
In the case of `FC(F)(F)Oc1ccc(Oc2ccc(CN3CCC4(CC3)OCCc3sccc34)cc2)cc1`, the “log(activity)” value [8] is reported as 2.7, the MIC [5] is reported as 0.06 µM and the CLH [7] is reported as 1.2 mL/min/g. For the same molecule, the “log(activity)” value [9] was 2.3.
In the case of `Cc1cc2nc(CCC3CCCCC3)[nH]c2cc1C`, the MIC [5] is reported as 0.75 µg/mL and the MIC [10] is reported as 0.125 µg/mL (≈ 0.488 µM).
With `c1cc2c(s1)CCOC21CCN(Cc2ccc3c(c2)OCCO3)CC1` the MIC [5] was 0.3 µM and the CLH [7] was over 30 mL/min/g.
For `CCCn1cnc2cc(NCc3ccc(Cl)cc3Cl)ccc21`, the IC90 [5] was 16 µM.
With `CCc1ccc([C@H]2C[C@@H](C(F)(F)F)n3ncc(C(=O)NCc4ccc(OC)cc4)c3N2)cc1` the MIC [5] was 0.3 µM and the MIC80 [11] was 0.16 µM (≈ 0.0734 µg/mL).
In the case of `Cc1c(CN2CCN(C)CC2)cc(-c2ccc(Cl)cc2)n1-c1ccc(Cl)cc1`, the MIC [12] is reported as 18.5 µM (≈ 7.67 µg/mL) and the MIC [13] is reported as 5 µM (≈ 2.07 µg/mL).
Work on `O=C(NCCc1ccc(Cl)cc1)C1(c2cccs2)CCCCC1` yielded an MIC99 [14] of 19.3 µM (≈ 6.71 µg/mL).
Molecule `Cc1c(CN2CCOCC2)cc(-c2ccc(C(C)C)cc2)n1-c1ccc(F)cc1` has an MIC [5] of 0.12 µM and a CLH [7] of 1.4 mL/min/g.
In the case of `CC1(C)CCC(NC(=O)c2cc3c(F)cc(F)cc3[nH]2)CC1`, the Tmax [15] is reported as 1.5 h, the CL/F [16] is reported as 18.7 mL/min/kg and the half-life [17] is reported as 4.47 h. It also gave a Vdss [18] of 2.24 L/kg.
Work on `CC1(C)CCC(NC(=O)c2cc3c(Cl)cc(Cl)cc3[nH]2)CC1` yielded a Tmax [15] of 1.5 h, a CL/F [16] of 18.1 mL/min/kg and a half-life [17] of 5.25 h. For the same molecule, the Vdss [18] was 4.11 L/kg.
`Cc1ccccc1CN1CCC(O)(c2ccc(Cl)c(C(F)(F)F)c2)CC1` showed an MIC [19] of 0.32 µM (≈ 0.123 µg/mL) and an MIC [20] of 0.32 µM (≈ 0.123 µg/mL).
